Laboratory results: article PMC9855386, “Obtaining a Monoclonal Antibody against a Novel Prometryn-Like Hapten and Characterization of Its Selectivity for Triazine Herbicides” (Biosensors, 2022)

Test system: 7D4 mAb (mouse monoclonal anti-prometryn antibody)
Assay: ic-ELISA cross-reactivity of the 7D4 mAb with triazines
Assay type: binding
Details: for Cross-Reactivity: relative to prometryn = 100%
Protocol: The ic-ELISA method was used to screen the best-performing fusion mouse sera. They were used to establish the standard curve of antibodies by detecting the supernatant of positive cells. The buffer required for ic-ELISA was the same as previously reported. The specific steps of the operation are as follows: (1) The coated antigen was added to the microplate by diluting it with the required coating solutions (CBS, pH 9.6, 0.05 mol/L). Each well contained 100 µL, which was incubated at 37 °C for three h before being washed three times with washing buffer (PBST, PBS containing 0.1% Tween-20). (2) With sample dilution buffer (PBSTG, PBST containing 0.1% gelatin), the standard prometryn sample and the antiserum/antibody from mice were diluted to the required concentration. The microplate was incubated for 30 min at 37 °C with 50 µL of diluted antiserum or antibody and standard samples of various concentrations. PBST was used three times to wash the dishes. (3) Then, 100 µL of PBSTG-diluent IgG HRP (labeled goat anti-mouse IgG with HRP) was added to each well. After 30 min at 37 °C, the plate was cleaned three times with PBST. (4) Each well was incubated for 15 min in the dark at 25 °C with 100 µL of TMB color developing solution. To stop the reaction, 50 µL of the hydrochloric acid solution was added to each well. The absorbance at OD450 nm was measured with a TECAN Infinite M200 PRO microplate reader from Männedorf, Switzerland.
The ic-ELISA method was used to determine the ideal antibody and antigen mix. The coating antigen and antibody concentration used in the experiment was 1 mg/mL. The dilution multiples of the coating were 1 × 10^3, 2 × 10^3, 4 × 10^3, and 8 × 10^3. The prometryn standard was 1000 ng/mL. The best concentration combination of antigen and antibody was selected to establish the standard curve of the antibody. Prometryn standards were diluted to 1000, 500, 250, 125, 62.5, 31.25, 15.625, 7.8125, 3.90625, and 0 ng/mL, with PBSTG for subsequent ic-ELISA experiments. The standard curve was determined by ic-ELISA. […] Each measured OD value in the curve is the average of three independent repeats. The 7D4 mAb’s inhibition rate was well linearly correlated with the prometryn concentration. […] The 7D4 mAb type was identified as IgG1 using a mouse antibody isotyping kit from Sigma®, St. Louis, MO, USA.
Eleven triazine herbicides were selected to determine their cross-reactivity with 7D4 mAb. […] The cross-reaction rate with the other seven triazines was less than 1%. The hybridoma cell line 7D4 screened in this study can specifically recognize prometryn. […] The cross-reaction rate may vary depending on the immunoassay format and the competitive hapten preparation used.

CSc1nc(NC(C)C)nc(NC(C)C)n1 [Prometryn, 2-methylthio-4,6-di(isopropylamino)-1,3,5-triazobenzene]
IC50 (ic-ELISA, analyte 1000-15.625 and 0 ng/mL): 3.901 ng/mL
Cross-Reactivity: 100%
Cross-Reactivity (listed as prometryn): 100%
